Laboratory results from PubChem BioAssay (NCI).
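Briefly, cells in 96-well plates were exposed to five compound concentrations for 48 h, and endpoints were estimated by linear interpolation. Abbreviation: GI50, concentration required for 50% inhibition of growth. The concentration for full growth arrest is given as TGI.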

How the values were obtained:
Experiment in all cases: NCI-60 cell line screen, 48 h
[1] = test system: 786-0 renal
[2] = test system: A498 renal
[3] = test system: A549 NSCLC
[4] = test system: ACHN renal
[5] = test system: BT-549 breast
[6] = test system: CAKI-1 renal
[7] = test system: CCRF-CEM leukemia
[8] = test system: COLO 205 colon
[9] = test system: EKVX NSCLC
[10] = test system: HCC-2998 colon
[11] = test system: HCT-116 colon
[12] = test system: HCT-15 colon
[13] = test system: HL-60(TB) leukemia
[14] = test system: HOP-62 NSCLC
[15] = test system: HOP-92 NSCLC
[16] = test system: HS 578T breast
[17] = test system: HT29 colon
[18] = test system: IGROV1 ovarian
[19] = test system: K-562 leukemia
[20] = test system: LOX IMVI melanoma
[21] = test system: M14 melanoma
[22] = test system: MALME-3M melanoma
[23] = test system: MCF7 breast
[24] = test system: MDA-MB-231 breast
[25] = test system: MDA-MB-435
[26] = test system: MDA-MB-468 breast
[27] = test system: MOLT-4 leukemia
[28] = test system: NCI-H226 lung
[29] = test system: NCI-H23 lung
[30] = test system: NCI-H460 lung
[31] = test system: NCI-H522 lung
[32] = test system: OVCAR-3 ovarian
[33] = test system: OVCAR-5 ovarian
[34] = test system: OVCAR-8 ovarian
[35] = test system: PC-3 prostate
[36] = test system: RPMI-8226 leukemia
[37] = test system: RXF 393 renal
[38] = test system: SF-268 CNS
[39] = test system: SF-295 CNS
[40] = test system: SF-539 CNS
[41] = test system: SK-MEL-2 melanoma
[42] = test system: SK-MEL-28 melanoma
[43] = test system: SK-MEL-5 melanoma
[44] = test system: SK-OV-3 ovarian
[45] = test system: SN12C renal
[46] = test system: SNB-19 CNS
[47] = test system: SNB-75 CNS
[48] = test system: SR leukemia
[49] = test system: SW-620 colon
[50] = test system: T-47D breast
[51] = test system: TK-10 renal
[52] = test system: U251 CNS
[53] = test system: UACC-257 melanoma
[54] = test system: UACC-62 melanoma
[55] = test system: UO-31 renal
[56] = test system: DU-145 prostate
[57] = test system: KM12 colon
[58] = test system: OVCAR-4 ovarian

C=C1CC[C@@H]2[C@]3(C)COC(c4cn(-c5ccccc5)nc4-c4ccccc4)O[C@@H]3CC[C@@]2(C)[C@@H]1C/C=C1/C(=O)OC[C@H]1O (stereo partly specified)
GI50 [1]: 2.03 µM
TGI [1]: 4.47 µM
GI50 [2]: 2.34 µM
TGI [2]: 6.47 µM
GI50 [3]: 2.49 µM
TGI [3]: 7.11 µM
GI50 [4]: 1.64 µM
TGI [4]: 3.05 µM
GI50 [5]: 1.64 µM
TGI [5]: 3.16 µM
GI50 [6]: 1.86 µM
TGI [6]: 4.81 µM
GI50 [7]: 0.59 µM
TGI [7]: 3.37 µM
GI50 [8]: 2.01 µM
TGI [8]: 3.57 µM
GI50 [9]: 2.07 µM
TGI [9]: 4.65 µM
GI50 [10]: 1.68 µM
TGI [10]: 3.11 µM
GI50 [11]: 1.61 µM
TGI [11]: 3.55 µM
GI50 [12]: 1.72 µM
TGI [12]: 3.45 µM
GI50 [13]: 2.32 µM
TGI [13]: 7.46 µM
GI50 [14]: 1.87 µM
TGI [14]: 3.84 µM
GI50 [15]: 1.53 µM
TGI [15]: 2.99 µM
GI50 [16]: 2.31 µM
TGI [16]: 6.54 µM
GI50 [17]: 2.37 µM
TGI [17]: 6.77 µM
GI50 [18]: 1.77 µM
TGI [18]: 3.44 µM
GI50 [19]: 2.97 µM
TGI [19]: > 100 µM
GI50 [20]: 1.54 µM
TGI [20]: 3 µM
GI50 [21]: 1.81 µM
TGI [21]: 3.62 µM
GI50 [22]: 1.73 µM
TGI [22]: 3.18 µM
GI50 [23]: 2 µM
TGI [23]: 9.09 µM
GI50 [24]: 1.72 µM
TGI [24]: 3.25 µM
GI50 [25]: 1.86 µM
TGI [25]: 4.19 µM
GI50 [26]: 1.69 µM
TGI [26]: 3.34 µM
GI50 [27]: 1.97 µM
TGI [27]: > 100 µM
GI50 [28]: 1.95 µM
TGI [28]: 4.31 µM
GI50 [29]: 1.69 µM
TGI [29]: 3.08 µM
GI50 [30]: 1.66 µM
TGI [30]: 3.35 µM
GI50 [31]: 1.9 µM
TGI [31]: 3.86 µM
GI50 [32]: 1.82 µM
TGI [32]: 3.35 µM
GI50 [33]: 1.86 µM
TGI [33]: 4.02 µM
GI50 [34]: 1.81 µM
TGI [34]: 5.31 µM
GI50 [35]: 1.95 µM
TGI [35]: 4.7 µM
GI50 [36]: 2.02 µM
TGI [36]: 8.62 µM
GI50 [37]: 1.4 µM
TGI [37]: 2.84 µM
GI50 [38]: 3.2 µM
TGI [38]: 20.5 µM
GI50 [39]: 1.64 µM
TGI [39]: 3.05 µM
GI50 [40]: 1.84 µM
TGI [40]: 3.26 µM
GI50 [41]: 1.74 µM
TGI [41]: 3.54 µM
GI50 [42]: 1.77 µM
TGI [42]: 3.38 µM
GI50 [43]: 1.4 µM
TGI [43]: 2.7 µM
GI50 [44]: 4.75 µM
TGI [44]: 18.7 µM
GI50 [45]: 1.87 µM
TGI [45]: 3.96 µM
GI50 [46]: 1.85 µM
TGI [46]: 3.78 µM
GI50 [47]: 1.36 µM
TGI [47]: 3.9 µM
GI50 [48]: 3.79 µM
TGI [48]: > 100 µM
GI50 [49]: 1.73 µM
TGI [49]: 3.68 µM
GI50 [50]: 1.42 µM
TGI [50]: 3.47 µM
GI50 [51]: 1.78 µM
TGI [51]: 3.39 µM
GI50 [52]: 1.84 µM
TGI [52]: 3.71 µM
GI50 [53]: 1.9 µM
TGI [53]: 3.8 µM
GI50 [54]: 1.65 µM
TGI [54]: 3.2 µM
GI50 [55]: 1.35 µM
TGI [55]: 2.69 µM

CNC(=O)c1cccc(NC(=O)c2ccc3c(c2)nnn3/C(C#N)=C/c2ccccn2)c1
GI50 [1]: 2.38 µM
TGI [1]: 7.7 µM
GI50 [2]: 18.6 µM
TGI [2]: 41.1 µM
GI50 [3]: 22.1 µM
TGI [3]: 60 µM
GI50 [4]: 13.7 µM
TGI [4]: 26.8 µM
GI50 [5]: 1.95 µM
TGI [5]: 5.59 µM
GI50 [6]: 6.37 µM
TGI [6]: 19.9 µM
GI50 [7]: 3.71 µM
TGI [7]: 38.4 µM
GI50 [8]: 2.63 µM
TGI [8]: 6.7 µM
GI50 [56]: 15.3 µM
TGI [56]: 29 µM
GI50 [9]: 15.8 µM
TGI [9]: 30.2 µM
GI50 [10]: 16.1 µM
TGI [10]: 29.8 µM
GI50 [11]: 2.74 µM
TGI [11]: 10.1 µM
GI50 [12]: 10.8 µM
TGI [12]: 23.6 µM
GI50 [13]: 3.21 µM
TGI [13]: 24.2 µM
GI50 [14]: 17.9 µM
TGI [14]: 41.2 µM
GI50 [15]: 11.6 µM
TGI [15]: 27.3 µM
GI50 [16]: 12.6 µM
TGI [16]: 38.1 µM
GI50 [17]: 10.5 µM
TGI [17]: 31.1 µM
GI50 [18]: 13.6 µM
TGI [18]: 27.5 µM
GI50 [19]: 3.11 µM
TGI [19]: > 100 µM
GI50 [57]: 16.5 µM
TGI [57]: 46.9 µM
GI50 [20]: 1.86 µM
TGI [20]: 3.9 µM
GI50 [21]: 10.9 µM
TGI [21]: 23 µM
GI50 [22]: 1.85 µM
TGI [22]: 3.94 µM
GI50 [23]: 3.46 µM
TGI [23]: 15.6 µM
GI50 [24]: 11.8 µM
TGI [24]: 24.7 µM
GI50 [25]: 7.69 µM
TGI [25]: 21.4 µM
GI50 [26]: 1.71 µM
TGI [26]: 3.43 µM
GI50 [27]: 3.51 µM
TGI [27]: 39 µM
GI50 [28]: 14.3 µM
TGI [28]: 29.2 µM
GI50 [29]: 13.4 µM
TGI [29]: 26.8 µM
GI50 [30]: 15.7 µM
TGI [30]: 34.1 µM
GI50 [31]: 1.61 µM
TGI [31]: 3.14 µM
GI50 [32]: 3.11 µM
TGI [32]: 10.2 µM
GI50 [58]: 15.7 µM
TGI [58]: 29.4 µM
GI50 [33]: 15.7 µM
TGI [33]: 29.3 µM
GI50 [34]: 15.3 µM
TGI [34]: 29.8 µM
GI50 [35]: 19.2 µM
TGI [35]: 48 µM
GI50 [36]: 10.4 µM
TGI [36]: 52.1 µM
GI50 [37]: 4.88 µM
TGI [37]: 16.9 µM
GI50 [38]: 17.9 µM
TGI [38]: 41.4 µM
GI50 [39]: 19.7 µM
TGI [39]: 39.5 µM
GI50 [40]: 13.8 µM
TGI [40]: 26.9 µM
GI50 [41]: 12.8 µM
TGI [41]: 25.9 µM
GI50 [42]: 1.95 µM
TGI [42]: 4.33 µM
GI50 [43]: 14.1 µM
TGI [43]: 27.4 µM
GI50 [44]: 30.2 µM
TGI [44]: > 100 µM
GI50 [45]: 16.4 µM
TGI [45]: 30.3 µM
GI50 [46]: 18.6 µM
TGI [46]: 38.9 µM
GI50 [47]: 17.7 µM
TGI [47]: 92.4 µM
GI50 [48]: 2.76 µM
TGI [48]: > 100 µM
GI50 [49]: 1.87 µM
TGI [49]: 3.75 µM
GI50 [50]: 2.31 µM
TGI [50]: 7.38 µM
GI50 [51]: 14 µM
TGI [51]: 27.6 µM
GI50 [52]: 15.3 µM
TGI [52]: 32.2 µM
GI50 [53]: 8.21 µM
TGI [53]: 21.2 µM
GI50 [54]: 14 µM
TGI [54]: 27.7 µM
GI50 [55]: 12.7 µM
TGI [55]: 25.3 µM
